In patent US9796696B2, “Substituted arylcyclopentenes as therapeutic agents” (Allergan, Inc., priority 2007, dated 2017):
pEC50, pKi: −log10 of the molar value.

What follows are molecules tested against T1, EP2 (Homo sapiens, UniProt P43116) (assay: EP2 Ki (in vitro testing)). Conditions: not given.
Format: binding
Excerpt: (§1) U.S. patent application Ser. No. 11/553,143, filed on Oct. 26, 2006, describes the methods used to obtain the in vitro data in the tables below.

T1 sequence (P43116 whole entry): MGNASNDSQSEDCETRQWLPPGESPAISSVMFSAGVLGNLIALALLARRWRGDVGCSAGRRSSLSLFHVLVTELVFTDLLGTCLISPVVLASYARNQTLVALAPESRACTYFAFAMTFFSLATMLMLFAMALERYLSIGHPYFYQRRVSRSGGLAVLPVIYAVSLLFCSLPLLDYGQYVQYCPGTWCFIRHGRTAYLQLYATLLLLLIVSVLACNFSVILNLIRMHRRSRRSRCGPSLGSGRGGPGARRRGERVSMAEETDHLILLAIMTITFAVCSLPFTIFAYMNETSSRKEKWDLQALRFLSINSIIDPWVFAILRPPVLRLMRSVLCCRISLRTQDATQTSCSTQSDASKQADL

Row | pKi | Structure (SMILES)
1 | 6.50 | CCCCCC(O)c1ccc(C2=C(O)C(=O)C[C@@H]2C/C=C\CCCC(=O)O)cc1 (some centres unmarked) [drawing 82]
2 | 8.00 | CCCCC[C@@H](O)c1ccc(C2=CCC[C@@H]2CCCc2ccc(C(=O)O)s2)cc1 [drawing 87]
3 | 7.74 | CCCCC[C@H](O)c1ccc(C2=CCC[C@@H]2CCCc2ccc(C(=O)O)s2)cc1 [drawing 86]
4 | 8.30 | CCCCCC(O)c1ccc(C2=C(C#N)CC[C@@H]2CCCc2ccc(C(=O)O)s2)cc1 (single isomer, unassigned) [drawing 84]
5 | 8.30 | CCCCCC(O)c1ccc(C2C(Br)=CC[C@@H]2CCCc2ccc(C(=O)O)s2)cc1 (some centres unmarked) [drawing 83]
6 | 8.52 | CCCCCC(O)c1ccc(C2=C(C#N)CC[C@@H]2CCCc2ccc(C(=O)O)s2)cc1 (single isomer, unassigned) [drawing 85]
7 | 8.82 | CCCCCC(O)c1ccc(C2=C(Br)CC[C@@H]2CCCc2ccc(C(=O)O)s2)cc1 (some centres unmarked) [drawing 79]
8 | 8.30 | CCCCCC(O)c1ccc(C2=CCC[C@@H]2CCCc2ccc(C(=O)O)s2)cc1 (some centres unmarked)
9 | 5.86 | CCCCCC(O)c1ccc(C2=C(C#N)CC[C@@H]2CCCc2ccc(C(=O)O)s2)cc1 (some centres unmarked)
10 | 8.62 | CCCCCC(O)c1ccc(C2=C(F)CC[C@@H]2CCCc2ccc(C(=O)O)s2)cc1 (some centres unmarked)

Each molecule was assayed against T2, EP4 (Homo sapiens, UniProt P35408) (assay: EP4 Ki (in vitro testing)). Conditions: read-out: EP4 Ki EC50.
T2 sequence (P35408 whole entry): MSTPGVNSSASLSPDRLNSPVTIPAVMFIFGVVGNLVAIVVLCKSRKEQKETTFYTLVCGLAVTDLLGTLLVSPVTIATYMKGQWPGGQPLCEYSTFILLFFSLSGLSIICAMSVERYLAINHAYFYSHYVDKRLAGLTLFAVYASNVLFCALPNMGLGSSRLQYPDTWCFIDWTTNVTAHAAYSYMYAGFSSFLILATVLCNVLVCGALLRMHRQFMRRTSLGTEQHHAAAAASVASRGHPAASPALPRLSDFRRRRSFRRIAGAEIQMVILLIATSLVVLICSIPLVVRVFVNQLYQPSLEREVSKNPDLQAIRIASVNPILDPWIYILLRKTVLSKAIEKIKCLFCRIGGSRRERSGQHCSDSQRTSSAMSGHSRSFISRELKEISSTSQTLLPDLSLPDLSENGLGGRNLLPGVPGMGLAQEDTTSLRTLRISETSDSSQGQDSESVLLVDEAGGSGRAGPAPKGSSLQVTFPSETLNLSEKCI
Format: binding
Excerpt: as §1

Row | pKi | Structure (SMILES)
11 | 6.11 | CCCCCC(O)c1ccc(C2=C(O)C(=O)C[C@@H]2C/C=C\CCCC(=O)O)cc1 (some centres unmarked) [drawing 82]
12 | 4.79 | CCCCC[C@@H](O)c1ccc(C2=CCC[C@@H]2CCCc2ccc(C(=O)O)s2)cc1 [drawing 87]
13 | < 5.00 | CCCCCC(O)c1ccc(C2=C(C#N)CC[C@@H]2CCCc2ccc(C(=O)O)s2)cc1 (single isomer, unassigned) [drawing 84]
14 | 6.28 | CCCCCC(O)c1ccc(C2C(Br)=CC[C@@H]2CCCc2ccc(C(=O)O)s2)cc1 (some centres unmarked) [drawing 83]
15 | 4.79 | CCCCCC(O)c1ccc(C2=C(C#N)CC[C@@H]2CCCc2ccc(C(=O)O)s2)cc1 (single isomer, unassigned) [drawing 85]
16 | 6.02 | CCCCCC(O)c1ccc(C2=C(Br)CC[C@@H]2CCCc2ccc(C(=O)O)s2)cc1 (some centres unmarked) [drawing 79]
17 | 5.93 | CCCCCC(O)c1ccc(C2=CCC[C@@H]2CCCc2ccc(C(=O)O)s2)cc1 (some centres unmarked)
18 | 6.76 | CCCCCC(O)c1ccc(C2=C(C#N)CC[C@@H]2CCCc2ccc(C(=O)O)s2)cc1 (some centres unmarked)
19 | < 5.00 | CCCCCC(O)c1ccc(C2=C(F)CC[C@@H]2CCCc2ccc(C(=O)O)s2)cc1 (some centres unmarked)

The molecules below were run against T1, EP2 (assay: EP2 cAMP EC50 (in vitro testing)). Conditions: not given.
Format: cell-based
Excerpt: as §1

Row | pEC50 | Structure (SMILES)
20 | 7.27 | CCCCCC(O)c1ccc(C2=C(O)C(=O)C[C@@H]2C/C=C\CCCC(=O)O)cc1 (some centres unmarked) [drawing 82]
21 | 9.10 | CCCCC[C@@H](O)c1ccc(C2=CCC[C@@H]2CCCc2ccc(C(=O)O)s2)cc1 [drawing 87]
22 | 9.00 | CCCCC[C@H](O)c1ccc(C2=CCC[C@@H]2CCCc2ccc(C(=O)O)s2)cc1 [drawing 86]
23 | 9.35 | CCCCCC(O)c1ccc(C2=C(C#N)CC[C@@H]2CCCc2ccc(C(=O)O)s2)cc1 (single isomer, unassigned) [drawing 84]
24 | 9.15 | CCCCCC(O)c1ccc(C2C(Br)=CC[C@@H]2CCCc2ccc(C(=O)O)s2)cc1 (some centres unmarked) [drawing 83]
25 | 9.40 | CCCCCC(O)c1ccc(C2=C(C#N)CC[C@@H]2CCCc2ccc(C(=O)O)s2)cc1 (single isomer, unassigned) [drawing 85]
26 | 9.40 | CCCCCC(O)c1ccc(C2=C(Br)CC[C@@H]2CCCc2ccc(C(=O)O)s2)cc1 (some centres unmarked) [drawing 79]
27 | 9.05 | CCCCCC(O)c1ccc(C2=CCC[C@@H]2CCCc2ccc(C(=O)O)s2)cc1 (some centres unmarked)
28 | 6.81 | CCCCCC(O)c1ccc(C2=C(C#N)CC[C@@H]2CCCc2ccc(C(=O)O)s2)cc1 (some centres unmarked)
29 | 9.70 | CCCCCC(O)c1ccc(C2=C(F)CC[C@@H]2CCCc2ccc(C(=O)O)s2)cc1 (some centres unmarked)

What follows are molecules tested against T3, EP3 (Homo sapiens, UniProt P43115) (assay: Other receptors Ca2+ EC50: EP3). Conditions: NA not defined in the patent.
T3 sequence (P43115 1-390): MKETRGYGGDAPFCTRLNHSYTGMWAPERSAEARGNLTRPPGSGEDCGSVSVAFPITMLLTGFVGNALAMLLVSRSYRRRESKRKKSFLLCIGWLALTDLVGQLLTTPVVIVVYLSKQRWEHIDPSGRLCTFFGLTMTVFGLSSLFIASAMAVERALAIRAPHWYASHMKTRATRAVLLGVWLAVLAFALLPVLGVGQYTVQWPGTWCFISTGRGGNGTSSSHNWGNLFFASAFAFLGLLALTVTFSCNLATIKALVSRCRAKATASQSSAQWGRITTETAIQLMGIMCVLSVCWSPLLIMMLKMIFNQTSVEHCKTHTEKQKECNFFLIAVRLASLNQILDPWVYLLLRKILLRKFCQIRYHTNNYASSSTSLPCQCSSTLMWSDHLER
Format: cell-based
Excerpt: as §1

Row | EC50 | Structure (SMILES)
30 | 9640 nM | CCCCCC(O)c1ccc(C2=C(O)C(=O)C[C@@H]2C/C=C\CCCC(=O)O)cc1 (some centres unmarked) [drawing 82]
31 | 5890 nM | CCCCC[C@@H](O)c1ccc(C2=CCC[C@@H]2CCCc2ccc(C(=O)O)s2)cc1 [drawing 87]
32 | 3090 nM | CCCCC[C@H](O)c1ccc(C2=CCC[C@@H]2CCCc2ccc(C(=O)O)s2)cc1 [drawing 86]
33 | 3540 nM | CCCCCC(O)c1ccc(C2=C(C#N)CC[C@@H]2CCCc2ccc(C(=O)O)s2)cc1 (single isomer, unassigned) [drawing 84]
34 | 3220 nM | CCCCCC(O)c1ccc(C2C(Br)=CC[C@@H]2CCCc2ccc(C(=O)O)s2)cc1 (some centres unmarked) [drawing 83]
35 | 202 nM | CCCCCC(O)c1ccc(C2=C(C#N)CC[C@@H]2CCCc2ccc(C(=O)O)s2)cc1 (single isomer, unassigned) [drawing 85]
36 | 2340 nM | CCCCCC(O)c1ccc(C2=C(Br)CC[C@@H]2CCCc2ccc(C(=O)O)s2)cc1 (some centres unmarked) [drawing 79]
37 | 8560 nM | CCCCCC(O)c1ccc(C2=C(C#N)CC[C@@H]2CCCc2ccc(C(=O)O)s2)cc1 (some centres unmarked)
38 | 1820 nM | CCCCCC(O)c1ccc(C2=C(F)CC[C@@H]2CCCc2ccc(C(=O)O)s2)cc1 (some centres unmarked)

What follows are molecules tested against T2, EP4 (assay: EP4 Ca2+ EC50 (in vitro testing)). Conditions: not given.
Format: cell-based
Excerpt: as §1

Row | pEC50 | Structure (SMILES)
39 | < 5.00 | CCCCCC(O)c1ccc(C2=C(O)C(=O)C[C@@H]2C/C=C\CCCC(=O)O)cc1 (some centres unmarked) [drawing 82]
40 | 5.55 | CCCCCC(O)c1ccc(C2=C(C#N)CC[C@@H]2CCCc2ccc(C(=O)O)s2)cc1 (single isomer, unassigned) [drawing 84]
41 | < 5.00 | CCCCCC(O)c1ccc(C2C(Br)=CC[C@@H]2CCCc2ccc(C(=O)O)s2)cc1 (some centres unmarked) [drawing 83]
42 | 5.47 | CCCCCC(O)c1ccc(C2=C(C#N)CC[C@@H]2CCCc2ccc(C(=O)O)s2)cc1 (single isomer, unassigned) [drawing 85]
43 | < 5.00 | CCCCCC(O)c1ccc(C2=C(Br)CC[C@@H]2CCCc2ccc(C(=O)O)s2)cc1 (some centres unmarked) [drawing 79]
44 | < 5.00 | CCCCCC(O)c1ccc(C2=CCC[C@@H]2CCCc2ccc(C(=O)O)s2)cc1 (some centres unmarked)
45 | 5.53 | CCCCCC(O)c1ccc(C2=C(F)CC[C@@H]2CCCc2ccc(C(=O)O)s2)cc1 (some centres unmarked)

What follows are molecules tested against T1, EP2 (assay: EP2 Ca2+ EC50 (in vitro testing)). Conditions: not given.
Format: cell-based
Excerpt: as §1

Row | pEC50 | Structure (SMILES)
46 | 6.35 | CCCCCC(O)c1ccc(C2=C(O)C(=O)C[C@@H]2C/C=C\CCCC(=O)O)cc1 (some centres unmarked) [drawing 82]
47 | 7.44 | CCCCC[C@@H](O)c1ccc(C2=CCC[C@@H]2CCCc2ccc(C(=O)O)s2)cc1 [drawing 87]
48 | 7.57 | CCCCC[C@H](O)c1ccc(C2=CCC[C@@H]2CCCc2ccc(C(=O)O)s2)cc1 [drawing 86]
49 | 7.13 | CCCCCC(O)c1ccc(C2=C(C#N)CC[C@@H]2CCCc2ccc(C(=O)O)s2)cc1 (single isomer, unassigned) [drawing 84]
50 | 6.07 | CCCCCC(O)c1ccc(C2C(Br)=CC[C@@H]2CCCc2ccc(C(=O)O)s2)cc1 (some centres unmarked) [drawing 83]
51 | 7.19 | CCCCCC(O)c1ccc(C2=C(C#N)CC[C@@H]2CCCc2ccc(C(=O)O)s2)cc1 (single isomer, unassigned) [drawing 85]
52 | 6.39 | CCCCCC(O)c1ccc(C2=C(Br)CC[C@@H]2CCCc2ccc(C(=O)O)s2)cc1 (some centres unmarked) [drawing 79]
53 | 7.72 | CCCCCC(O)c1ccc(C2=CCC[C@@H]2CCCc2ccc(C(=O)O)s2)cc1 (some centres unmarked)
54 | 7.57 | CCCCCC(O)c1ccc(C2=C(F)CC[C@@H]2CCCc2ccc(C(=O)O)s2)cc1 (some centres unmarked)

The molecules below were run against T4, DP (Homo sapiens, UniProt Q13258) (assay: Other receptors Ca2+ EC50: DP). Conditions: NA not defined in the patent.
T4 sequence (Q13258 1-359): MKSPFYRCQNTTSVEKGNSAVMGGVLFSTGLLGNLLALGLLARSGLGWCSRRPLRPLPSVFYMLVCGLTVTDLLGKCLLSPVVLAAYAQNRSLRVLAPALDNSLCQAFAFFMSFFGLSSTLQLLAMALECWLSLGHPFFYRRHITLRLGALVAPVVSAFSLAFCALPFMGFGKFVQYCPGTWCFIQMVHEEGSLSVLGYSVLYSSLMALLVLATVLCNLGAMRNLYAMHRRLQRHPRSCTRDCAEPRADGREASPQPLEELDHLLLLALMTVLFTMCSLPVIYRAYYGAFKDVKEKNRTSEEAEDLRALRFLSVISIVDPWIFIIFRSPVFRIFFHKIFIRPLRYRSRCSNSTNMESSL
Format: cell-based
Excerpt: as §1

Row | EC50 | Structure (SMILES)
55 | 9920 nM | CCCCC[C@@H](O)c1ccc(C2=CCC[C@@H]2CCCc2ccc(C(=O)O)s2)cc1 [drawing 87]
56 | 7740 nM | CCCCC[C@H](O)c1ccc(C2=CCC[C@@H]2CCCc2ccc(C(=O)O)s2)cc1 [drawing 86]
